Laboratory results: the supplement of paper PMC11451515

Legend:
Test in all cases: AUC of viability dose-response curve (% viability x log10 dose units); higher = less sensitive
Conditions in all cases: 48 h
[1] = system: SEM cells
Method in brief: (§1)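 Library compounds in DMSO were applied for 48 h at 37°C at 11 threefold doses (47 μM to 0.79 nM) to medium-adapted leukemia cells in 1536-well plates holding 500 or 1000 cells/well. Luminescence from CellTiter-Glo One was normalised plate by plate against DMSO and cell-free wells. Area under the curve came from trapezoidal integration of a log-logistic fit, after scaling curves that rose above full viability and discarding those that failed quality control. The fit had four parameters and used log10 doses.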

[2] = system: NOMO1
Method in brief: as §1

[3] = system: P12-Ichikawa
Method in brief: as §1

[4] = RPMI 5 mM glucose + 10% dialyzed FBS

SMILES	AUC of viability dose-response curve ([1]; HPLM + 10% dialyzed FBS)	AUC of viability dose-response curve ([1]; RPMI 5 mM glucose + 10% FBS)	AUC of viability dose-response curve [1, 4]	AUC of viability dose-response curve ([2]; HPLM + 10% dialyzed FBS)	AUC of viability dose-response curve ([2]; RPMI 5 mM glucose + 10% FBS)	AUC of viability dose-response curve [2, 4]	AUC of viability dose-response curve ([3]; HPLM + 10% dialyzed FBS)	AUC of viability dose-response curve ([3]; RPMI 5 mM glucose + 10% FBS)	AUC of viability dose-response curve [3, 4]
CCN(CC)CCCCNc1ncc2c(n1)N(C)C(=O)N(c1c(Cl)c(OC)cc(OC)c1Cl)C2	423	421	422	429	453	451	450	446	448
O=C1Nc2ccc(I)cc2/C1=C/c1cc(Br)c(O)c(Br)c1	466	457	451	469	457	448	469	468	458
CC1=C(CC(=O)O)c2cc(F)ccc2/C1=C\c1ccc([S+](C)[O-])cc1 (stereo not drawn)	450	422	430	448	453	445	458	451	449
Cc1cc(Nc2cc(CN3CCOCC3)c3nc(C)c(Cc4ccc(Cl)cc4F)n3n2)[nH]n1	342	317	310	429	424	422	436	428	439
C=CC(=O)Nc1cccc(Nc2nc(NC3CCC(N(C)C)CC3)nc3c2ncn3C(C)C)c1 (stereo not drawn)	319	340	320	348	361	350	366	366	377
CNCc1ccc(-c2[nH]c3cc(F)cc4c3c2CCNC4=O)cc1	439	434	460	474	466	461	470	474	467
C[S+](=O)([O-])c1ccc(-c2cnc(N)c(C(=O)Nc3ccccc3)n2)cc1	413	423	408	435	462	455	462	453	449
C=CCc1cccc(/C=N/NC(=O)CN2CCN(Cc3ccccc3)CC2)c1O	399	411	378	419	448	433	420	424	417
C/C(O)=C(\C#N)C(=O)Nc1cc(Br)ccc1Br	441	442	434	420	439	442	462	469	449
CC(C)c1ccc(Cn2ccc3c4c(N)nc(NC5CC5)nc4ccc32)cc1	343	383	390	339	409	384	343	392	368
CC(C)c1cnn2c(NCc3ccccc3)cc(NCCCCCCN)nc12	465	416	471	464	470	463	464	442	439
C[C@]12CC[C@@H]3c4ccc(O)cc4CC[C@H]3[C@@H]1C[C@@H](O)[C@@H]2O	468	419	454	436	463	447	466	468	466
COC1=CC=C(C=C1O)C/2=C/C(=O)C3=C(O2)C=C(O)C=C3O	419	456	456	466	428	437	440	446	381
COc1cccc([C@@H](C)NCCCc2ccccc2Cl)c1	463	436	472	461	437	429	440	435	432
Cc1cnc(C(=O)O)c[n+]1[O-]	450	416	475	400	454	447	460	468	441
C[S+](=O)([O-])c1cccc(CNc2nc(Nc3ccc4c(c3)CCC(=O)N4)ncc2C(F)(F)F)c1	331	367	355	436	446	454	450	444	451
C[C@H]1[C@@H](C(=O)C[C@H]2O[C@@H]3O[C@]4(C)CC[C@H]5[C@H](C)CC[C@@H]([C@H]2C)[C@@]35OO4)O[C@@H]2O[C@]3(C)CC[C@H]4[C@H](C)CC[C@@H]1[C@@]24OO3	411	407	432	435	436	418	433	435	421
